Laboratory results published in ChEMBL document CHEMBL1201862, “PubChem BioAssay data set” (2004).
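These data come from cells grown in 96-well plates and exposed to compound for 48 hours at five concentrations. The concentration for 50% growth inhibition is given as GI50.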 Active and inactive are the calls of the source. Cut-off read from the data, not from the text of the source: active = GI50 up to about 1.1 µM and inactive = higher.

Key:
Experiment in all cases: DTP human tumour cell line panel, 48 h
A498 = system: A498
CAKI-1 = system: CAKI-1
COLO 205 = system: COLO 205
HCT-15 = system: HCT-15
HOP-62 = system: HOP-62
MDA-MB-435 = system: MDA-MB-435
Malme-3M = system: Malme-3M
NCI-H226 = system: NCI-H226
NCI-H23 = system: NCI-H23
OVCAR-3 = system: OVCAR-3
PC-3 = system: PC-3
SF-268 = system: SF-268
SK-MEL-2 = system: SK-MEL-2
SK-MEL-5 = system: SK-MEL-5
SNB-19 = system: SNB-19
SW-620 = system: SW-620
TK-10 = system: TK-10
UACC-62 = system: UACC-62
UO-31 = system: UO-31
NCI-H460 = system: NCI-H460

| SMILES | GI50 (A498) | GI50 (CAKI-1) | GI50 (COLO 205) | GI50 (HCT-15) [µM] | GI50 (HOP-62) | GI50 (MDA-MB-435) | GI50 (Malme-3M) | GI50 (NCI-H226) | GI50 (NCI-H23) | GI50 (OVCAR-3) | GI50 (PC-3) | GI50 (SF-268) | GI50 (SK-MEL-2) | GI50 (SK-MEL-5) | GI50 (SNB-19) | GI50 (SW-620) | GI50 (TK-10) | GI50 (UACC-62) | GI50 (UO-31) | GI50 (NCI-H460) |
| --- | --- | --- | --- | --- | --- | --- | --- | --- | --- | --- | --- | --- | --- | --- | --- | --- | --- | --- | --- | --- |
| N#Cc1c(C#N)c(-c2ccccc2)n(Cc2ccccc2)c1N | > 100 µM (inactive) | > 100 µM (inactive) | > 100 µM (inactive) | > 100 | 51.1 µM (inactive) | > 100 µM (inactive) | > 100 µM (inactive) | > 100 µM (inactive) | > 100 µM (inactive) | > 100 µM (inactive) | > 100 µM (inactive) | 47.2 µM (inactive) | > 100 µM (inactive) | > 100 µM (inactive) | 29.6 µM (inactive) | > 100 µM (inactive) | > 100 µM (inactive) | > 100 µM (inactive) | > 100 µM (inactive) |  |
| COC(=O)C[C@H](COCc1ccccc1)NC(=O)C[C@H](COCc1ccccc1)NC(=O)C[C@H](COCc1ccccc1)NC(=O)OC(C)(C)C | 24 µM (inactive) | > 100 µM (inactive) | > 100 µM (inactive) | > 100 | 16.9 µM (inactive) | 32.8 µM (inactive) | > 100 µM (inactive) | > 100 µM (inactive) | > 100 µM (inactive) | > 100 µM (inactive) | 13.2 µM (inactive) | 41.5 µM (inactive) | > 100 µM (inactive) | > 100 µM (inactive) | > 100 µM (inactive) | > 100 µM (inactive) |  | > 100 µM (inactive) | > 100 µM (inactive) |  |
| NC1c2c(Br)sc(N3CCCC3)c2C(=O)C1O (stereo not drawn) | > 50 µM (inactive) | > 50 µM (inactive) | > 50 µM (inactive) | > 50 |  | > 50 µM (inactive) | > 50 µM (inactive) | > 50 µM (inactive) | > 50 µM (inactive) | > 50 µM (inactive) | > 50 µM (inactive) | > 50 µM (inactive) | > 50 µM (inactive) | > 50 µM (inactive) | > 50 µM (inactive) | > 50 µM (inactive) | > 50 µM (inactive) | > 50 µM (inactive) | > 50 µM (inactive) | > 50 µM (inactive) |
| Nc1nc(Cl)cc(NC2(CO)CCC2)n1 | > 100 µM (inactive) | 89.5 µM (inactive) | > 100 µM (inactive) | > 100 | > 100 µM (inactive) | > 100 µM (inactive) | > 100 µM (inactive) | > 100 µM (inactive) | > 100 µM (inactive) | > 100 µM (inactive) | > 100 µM (inactive) | > 100 µM (inactive) | > 100 µM (inactive) | > 100 µM (inactive) |  | > 100 µM (inactive) | > 100 µM (inactive) | > 100 µM (inactive) | > 100 µM (inactive) | > 100 µM (inactive) |
| CC1(C)C=Cc2c(cc3oc4ccc5c(c4c(=O)c3c2O)C=CC(C)(C)O5)O1 | > 100 µM (inactive) | > 100 µM (inactive) | > 100 µM (inactive) | > 100 | > 100 µM (inactive) | > 100 µM (inactive) | > 100 µM (inactive) | > 100 µM (inactive) | > 100 µM (inactive) | > 100 µM (inactive) | > 100 µM (inactive) | > 100 µM (inactive) | > 100 µM (inactive) | > 100 µM (inactive) | > 100 µM (inactive) | > 100 µM (inactive) | > 100 µM (inactive) | > 100 µM (inactive) | > 100 µM (inactive) |  |
| CC(Nc1cccc(Cl)c1)c1ccncc1 (stereo not drawn) | 95.9 µM (inactive) | 40.7 µM (inactive) | > 100 µM (inactive) | > 100 | > 100 µM (inactive) | 56.2 µM (inactive) | > 100 µM (inactive) | 44.3 µM (inactive) | 71.3 µM (inactive) | 49.4 µM (inactive) | 30.5 µM (inactive) | > 100 µM (inactive) | > 100 µM (inactive) | 31.6 µM (inactive) | > 100 µM (inactive) | > 100 µM (inactive) | > 100 µM (inactive) |  | 7.21 µM (inactive) | > 100 µM (inactive) |
